Kd data for four compounds are collected here from EP4667483A1, “HUMAN TRANSFERRIN RECEPTOR-BINDING PEPTIDE” (JCR Pharmaceuticals Co., Ltd., priority 2023, dated 2024).

The target in test [1] is T1, human transferrin receptor (hTfR) (Homo sapiens, UniProt P02786). Put plainly: SPR measurement under pH 7.4 conditions (Biacore T200, CM3 chip, hTfR captured by His Tag antibody). The test is classed as binding. Particulars: read-out: hTfR SPR pH7.4 KD. Background: In SPR one partner is held on a chip, and binding of the other changes the refractive index at the surface.

For test [2], the target named is T1, human transferrin receptor (hTfR). Put plainly: SPR measurement under pH 6.0 conditions (Biacore T200, NTA chip, immobilized hTfR). Particulars: read-out: hTfR SPR pH6.0 KD. The test is classed as binding.

Bridge positions count the residues as written; N and C are the ends. Square brackets hold non-standard residues; d marks the D form. Peptide text beside a SMILES is read from it. * marks the point of attachment. Trp(1-CH2COOH) = N[C@@H](Cc1cn(CC(=O)O)c2ccccc12)C(=O)O; CH2CON(CH2CH2)2NCH2COOH = O=C(O)CN1CCN(C(=O)C*)CC1; NMePhe(4-COOH) = CN[C@@H](Cc1ccc(C(=O)O)cc1)C(=O)O; Nle(6-morpholino) = N[C@@H](CCCCN1CCOCC1)C(=O)O; Phe(3-COOH) = N[C@@H](Cc1cccc(C(=O)O)c1)C(=O)O; Trp(7-aza) = N[C@@H](Cc1c[nH]c2ncccc12)C(=O)O; NH(CH2CH2O)8Me = COCCOCCOCCOCCOCCOCCOCCOCCN*; NMePhe(3-Cl) = CN[C@@H](Cc1cccc(Cl)c1)C(=O)O; 3Pal(6-NH2) = Nc1ccc(C[C@H](N)C(=O)O)cn1; Lys(N3) = [N-]=[N+]=NCCCC[C@H](N)C(=O)O; NMeY = CN[C@@H](Cc1ccc(O)cc1)C(=O)O; Nva(3-Et) = CCC(CC)[C@H](N)C(=O)O; 4Pal = N[C@@H](Cc1ccncc1)C(=O)O; PEG4 = NCCOCCOCCOCCOCCC(=O)O; Carboxymethyl = O=C(O)C*

T1 sequence (P02786 whole entry): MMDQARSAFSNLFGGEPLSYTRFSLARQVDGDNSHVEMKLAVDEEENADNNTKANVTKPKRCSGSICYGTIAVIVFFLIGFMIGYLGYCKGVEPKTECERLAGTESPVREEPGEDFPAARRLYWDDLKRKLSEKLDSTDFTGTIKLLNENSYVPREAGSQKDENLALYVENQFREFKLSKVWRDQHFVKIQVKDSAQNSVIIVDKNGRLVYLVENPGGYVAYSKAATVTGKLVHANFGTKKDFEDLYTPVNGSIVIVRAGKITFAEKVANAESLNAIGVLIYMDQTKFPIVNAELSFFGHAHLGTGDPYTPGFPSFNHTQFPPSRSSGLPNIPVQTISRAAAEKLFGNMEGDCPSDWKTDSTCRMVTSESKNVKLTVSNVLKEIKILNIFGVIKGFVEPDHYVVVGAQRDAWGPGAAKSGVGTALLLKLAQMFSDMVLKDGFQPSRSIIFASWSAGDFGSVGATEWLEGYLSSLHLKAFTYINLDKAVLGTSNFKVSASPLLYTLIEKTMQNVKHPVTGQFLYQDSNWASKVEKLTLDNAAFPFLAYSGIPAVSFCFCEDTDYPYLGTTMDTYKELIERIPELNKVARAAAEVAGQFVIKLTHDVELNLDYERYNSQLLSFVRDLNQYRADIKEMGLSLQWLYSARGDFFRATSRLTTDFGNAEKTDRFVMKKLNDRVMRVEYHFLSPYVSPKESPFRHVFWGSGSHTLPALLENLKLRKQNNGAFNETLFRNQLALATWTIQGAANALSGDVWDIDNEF

A word on the Kd: it is the equilibrium constant for the complex coming apart. For `CC[C@H](C)[C@@H]1NC(=O)[C@H](Cc2ccc(OC)cc2)NC(=O)[C@H](Cc2ccc(N)nc2)NC(=O)[C@H](CC(N)=O)NC(=O)[C@H](Cc2c[nH]c3ncccc23)NC(=O)[C@H](C(C)C)NC(=O)[C@H](Cc2cccc(Cl)c2)N(C)C(=O)[C@H](C(C)C)NC(=O)[C@H](C)NC(=O)CSC[C@@H](C(=O)NCC(=O)NCC(=O)NCC(=O)NCC(=O)N[C@@H](CO)C(=O)N[C@@H](CO)C(=O)N[C@@H](CCCCN=[N+]=[N-])C(N)=O)NC(=O)[C@H](Cc2ccc(O)cc2)N(C)C(=O)[C@H](Cc2ccncc2)NC(=O)[C@H](CCCCN2CCOCC2)NC(=O)[C@H](CCCCN2CCOCC2)NC(=O)[C@H]([C@@H](C)CC)NC1=O` [compound 192], the Kd was found to be 1.49 nM in test [1] (SPR, pH 7.4, Table 1-3-2-2) and 10.5 nM in test [2] (SPR, pH 6.0, Table 1-3-2-2).
`CC[C@H](C)[C@@H]1NC(=O)[C@H](Cc2ccc(OC)cc2)NC(=O)[C@H](Cc2ccc(N)nc2)NC(=O)[C@H](CC(N)=O)NC(=O)[C@H](Cc2c[nH]c3ncccc23)NC(=O)[C@H](C(C)C)NC(=O)[C@H](Cc2cccc(Cl)c2)N(C)C(=O)[C@H](C(C)C)NC(=O)[C@H](C)NC(=O)CSC[C@@H](C(=O)NCC(=O)N[C@@H](CCCCN=[N+]=[N-])C(N)=O)NC(=O)[C@H](Cc2ccc(O)cc2)N(C)C(=O)[C@H](Cc2ccncc2)NC(=O)[C@H](CCCCN2CCOCC2)NC(=O)[C@H](CCCCN2CCOCC2)NC(=O)[C@H]([C@@H](C)CC)NC1=O` [compound 68] ({CH2CO}-AV[NMePhe(3-Cl)]V[Trp(7-aza)]N[3Pal(6-NH2)]Y(Me)II[Nle(6-morpholino)][Nle(6-morpholino)][4Pal][NMeY]CG[Lys(N3)]-NH2; thioether N-15): the Kd amounted to 2.06 nM in test [1] (pH 7.4, single-cycle kinetics) and 12.4 nM in test [2] (pH 6.0, single-cycle kinetics).
`CCC(CC)[C@@H]1NC(=O)[C@H](Cc2ccc(OCC(=O)N3CCN(CC(=O)O)CC3)cc2)NC(=O)[C@H](Cc2ccc(O)cc2)NC(=O)[C@H](CC(N)=O)NC(=O)[C@H](Cc2cn(CC(=O)O)c3ccccc23)NC(=O)[C@H](C(C)C)NC(=O)[C@H](Cc2cccc(Cl)c2)N(C)C(=O)[C@H](C(C)C)NC(=O)[C@H](C)NC(=O)CSC[C@@H](C(=O)NCCOCCOCCOCCOCCC(N)=O)NC(=O)[C@H](Cc2ccc(C(=O)O)cc2)N(C)C(=O)[C@H](Cc2cccc(C(=O)O)c2)NC(=O)[C@H](CCCCN2CCOCC2)NC(=O)[C@H](CCCCN2CCOCC2)NC(=O)[C@H]([C@@H](C)CC)NC1=O` [compound 55] ({CH2CO}-AV[NMePhe(3-Cl)]V[Trp(1-CH2COOH)]NYY(CH2CON(CH2CH2)2NCH2COOH)[Nva(3-Et)]I[Nle(6-morpholino)][Nle(6-morpholino)][Phe(3-COOH)][NMePhe(4-COOH)]C[PEG4]-NH2; thioether N-15): the Kd is 26.4 nM in test [1] (pH 7.4, single-cycle kinetics) and 38.5 nM in test [2] (pH 6.0, single-cycle kinetics).
The matching figures for `CCC(CC)[C@@H]1NC(=O)[C@H](Cc2ccc(OCC(=O)O)cc2)NC(=O)[C@H](Cc2ccc(N)nc2)NC(=O)[C@H](CC(N)=O)NC(=O)[C@H](Cc2c[nH]c3ncccc23)NC(=O)[C@H](C(C)C)NC(=O)[C@H](Cc2cccc(Cl)c2)N(C)C(=O)[C@H](C(C)C)NC(=O)[C@H](C)NC(=O)CSC[C@@H](C(=O)NCCOCCOCCOCCOCCC(N)=O)NC(=O)[C@H](Cc2ccc(O)cc2)N(C)C(=O)[C@H](Cc2cccc(C(=O)O)c2)NC(=O)[C@H](CCCNC(=N)N)NC(=O)[C@H](CCC(=O)NCCOCCOCCOCCOCCOCCOCCOCCOC)NC(=O)[C@H]([C@@H](C)CC)NC1=O` [compound 43] ({CH2CO}-AV[NMePhe(3-Cl)]V[Trp(7-aza)]N[3Pal(6-NH2)]Y(Carboxymethyl)[Nva(3-Et)]IE(NH(CH2CH2O)8Me)R[Phe(3-COOH)][NMeY]C[PEG4]-NH2; thioether N-15): 107 nM and 601 nM.
